Columns and labels:
[1] = system: hair growth in C57BL/6 mice skin tissue; experiment: Induction of hair growth phase in depilated C57BL/6 mice (topical, 30 days); type: in vivo; settings: applied once a day for 30 days
Experimental: 6-week-old C57BL/6 female mice with white or pink back skin were used as experimental animals and the experiment was conducted according to guidelines for the management and use of laboratory animals approved by the Animal Research Ethics Committee of the Korea Institute of Science and Technology (approval number: […]-2018-081). […] The back hairs of the mice were depilated using an electric shaver and a test substance was applied to the depilated area once a day for 30 days. […] 30 days after treatment with the sample, the hairs were randomly collected, the thickness and length of the hairs were measured, and the results are shown in FIG. 3 and Table 1. On the last day of application of the test substance, the mice were sacrificed to obtain skin tissues, and then tissues were fixed with paraffin and then prepared into tissue slices. These were stained with hematoxylin and eosin (H&E) and observed under a microscope (100×), and the results are shown in FIG. 4.

[2] = system: lipid peroxide production in liver homogenate; experiment: Inhibition of lipid peroxide formation in rat liver homogenate (TBA method); type: biochemical, Sprague-Dawley rats; settings: positive controls, FeSO4/ascorbic acid, 37° C., 30 minutes, mean ± standard error, read-out: Lipid peroxide production inhibitory activity IC50
Experimental: Lipid peroxide is a substance produced by peroxidation of lipids through various oxidation reactions. Reactive oxygen species, free radicals and the like oxidize phospholipids of cell membranes containing great amounts of unsaturated fatty acids, producing lipid peroxides in the cell membranes. […] The animals used in the experiment were male Sprague-Dawley rats, and only water was supplied for 24 hours before the experiment.

[3] = A. ageratoides 1%, minoxidil 3%

IC50 [2] | SMILES | hair thickness ([1]; 1% Aster ageratoides extract, 3% minoxidil) | Hair length [1, 3] | Hair width [1, 3] | Hair length ([1]; A. ageratoides 1%, minoxidil 3%, listed as positive control)
– | Nc1cc(N2CCCCC2)nc(N)[n+]1[O-] [Minoxidil, minoxidil] | 53.19±4.04 μm | 6-9 mm | 53.2 ± 4.04 µm | 6 to 9 mm
> 100 µM | Cc1c(C)c2c(c(C)c1O)CCC(C)(C(=O)O)O2 (centres unmarked) [Trolox] | – | – | – | –
